Assay results: article PMC10667816, “A Cell‐Penetrant Peptide Disrupting the Transcription Factor CP2c Complexes Induces Cancer‐Specific Synthetic Lethality” (Advanced Science, 2023)
pIC50: −log10 of the molar value. *1 amine or outer side, *2 acyl side, *3 side chain or, on linkers, in order; H or OH if unused. Where a SMILES comes first, the peptide text is derived from it. Side-chain parts run from the residue outwards. The star is where a group is joined. γGlu = O=C(O)[C@H](CCC(=O)[*:2])N[*:1]; Palmitoyl = CCCCCCCCCCCCCCCC(=O)*

Experiments:
[1] = Nanoparticle formation in solution (DLS); format: physicochemical; conditions: DLS in saline, 25 °C, each sample analyzed five times
Procedure: For determining the dimensions and nanoparticle formation of the peptides in solution, DLS analysis was performed using the Scatteroscope I nanoparticle size analyzer (K‐One, SOS1). Saline served as the negative control, and all experiments were conducted at a constant temperature of 25 °C. Each sample was analyzed five times, and the resulting data were graphically presented, incorporating all five profiles obtained from the experiments. The purity and dimer formation of the peptides were analyzed using HPLC and LC‐MS. HPLC analysis was carried out using a Shimadzu HPLC LabSolution equipped with a pump, an autosampler, a column oven, and a UV–vis detector. Chromatographic separation was performed on a Shimadzu C18 analytical column at 35 °C, with an injection volume of 20 µL (0.5 mg mL^−1). The mobile phases consisted of 0.05% trifluoroacetic acid (TFA) in water (A) and 0.05% TFA in acetonitrile (B). The flow rate was maintained at 1 mL min^−1, and the gradient program was as follows: 20–80% B over 30 min. Ionization was achieved using electrospray ionization (ESI) in positive mode with selected reaction monitoring (SRM). Mass spectrometry analysis was performed with an ESI source in the positive‐ionization mode.

[2] = test system: α‐globin mRNA expression in iMEL cells; assay: Transcription inhibition of α‐globin mRNA expression; format: cell-based, murine; conditions: α‐globin (Hba-a2) mRNA, 36 h after ACP52C treatment, two independent biological replicates, read-out: TI50 (the source's name)
Procedure: To quantify mRNA expression of the gene of interest, cells were harvested, and total cellular RNA was extracted using Qiazol reagent (Qiagen, 79306). Purified RNA was dissolved in Diethyl pyrocarbonate (DEPC) water. Reverse transcription was performed using a High‐Capacity cDNA reverse transcription kit (Toyobo, FSQ‐201) in the presence of 400 ng of total RNA and 10 pmol random hexamer. PCR was performed using rTaq Plus 5X PCR master mix (Elpis‐Biotech, EBT‐1319) and the SYBR green Master Mix Kit. Amplifications were performed using a Light cycler 1.5 real‐time PCR system.^[ [43] ^] The relative mRNA expression levels were determined using the 2(−ΔCt) method, with GAPDH transcript levels serving as an internal control. Errors were calculated from at least two independent experiments. Oligonucleotide primers used in RT–qPCR are listed in Table S2 (Supporting Information).
Figure S13. The relationship between ACP52C-mediated growth inhibition and transcriptional
cell differentiation in vitro.
at 36 h after ACP52C treatment of various doses.
biological replicates. […] C)
expression in uMEL and iMEL c ells. D-G) Anticancer activity of ACP52C correlates with cellular
Modulation of GI50 values in cancer cells by
ACP52C treatment. […] Duplicated data
are expressed as means ± SD.

[3] = test system: normal cells such as mesenchymal stem cells and embryonic stem cells; assay: Cell death in normal cells; format: cell-based, human
Procedure: performance of FQI1. Two micromoles of each Pep #5-2C and FQI1 were added to the cell culture for 2 days. Fractions of benzidine-positive stained cells were counted in MEL cells (n > 100 cells/group) treated with HMBA for 2 days. Hba-a2 gene expression at mRNA and protein levels were estimated by RT-qPCR […]
and WB, respectively. […] ANOVA […]
similar performance of Pep #5 or Pep #5-2. DNA-pull down assays for the [C4] complex (B) and the CBP […]
complexes (C). […] Two-tailed […]
formation by itself, surpassing the performance of FQI1. Co-IP assays for the [C4] complex (D) and the […]
CBP complexes (E). […] Student’s […]
than FQI1. G) Cell growth inhibition plots and GI50 values of FQI1 and ACP52C in various cancer cell lines and normal cells over peptide dose. GI50 values estimated from two independent biological replicates. […]
hESCs were cultured on the Rhodamine -labeled MEF cells. Ten micromoles of each ACP52C and FQI1 were added to the cell culture for 3 days before capturing images of cultures.

[4] = target: T1, CP2c (Mus musculus, UniProt Q9ERA0); assay: DNA‐IP assay of CP2c DNA binding; format: biochemical; conditions: 0–3 µM peptide, concentration‐dependent
T1 construct: extracts from iMEL cells (day 2); endogenous in cells; host or cells: nuclear extract of HMBA-induced MEL (iMEL) cells, day 2
Procedure: DNA‐IP assay was performed essentially as described previously.^[ [14] ^] Each of the oligonucleotides was mixed and annealed in the TEN buffer. For the radio‐labeling of the DNA probe, the annealed DNA was incubated with a mixture of dATP, dGTP, dTTP, [α^32P]‐dCTP, and Klenow enzyme in reaction buffer (5 mM NaCl, 1 mM Tris HCl, 1 mM MgCl2, and 0.1 mM DTT) for 30 min at 25 °C, and stopped by incubation with EDTA (10 mM final) for 20 min at 75 °C. The radio‐labeled DNA probe was purified by applying the reaction mixture to ProbeQuant G‐50 micro columns (GE healthcare, GE28‐9034‐08). Whole extracts prepared from transfecting 293T cells or purified GST fused CP2c proteins (wildtype and point mutants) were incubated with a [α^32P]‐labeled DNA probe in binding buffer (4% glycerol, 10 mM Tris‐HCl, pH 7.4, 1 mM DTT, 1 mM EDTA, and 0.1% NP‐40) for 15 min at room temperature. Then 0–3 µM of peptides (Pep #5, Pep #8, Pep #5‐1, Pep #5‐2, and Pep #5‐2C) were added to the DNA‐protein mixture, and the mixtures were incubated for 15 min at room temperature (peptide sequences are listed in Table S3, Supporting Information). For IP, precleared extracts were incubated overnight at 4 °C with 1 µg of the following primary antibodies (CP2c, CP2b, and PIAS1). […] The radioactivity of the eluted probe was measured by scintillation counting.

T1 sequence (Q9ERA0 whole entry): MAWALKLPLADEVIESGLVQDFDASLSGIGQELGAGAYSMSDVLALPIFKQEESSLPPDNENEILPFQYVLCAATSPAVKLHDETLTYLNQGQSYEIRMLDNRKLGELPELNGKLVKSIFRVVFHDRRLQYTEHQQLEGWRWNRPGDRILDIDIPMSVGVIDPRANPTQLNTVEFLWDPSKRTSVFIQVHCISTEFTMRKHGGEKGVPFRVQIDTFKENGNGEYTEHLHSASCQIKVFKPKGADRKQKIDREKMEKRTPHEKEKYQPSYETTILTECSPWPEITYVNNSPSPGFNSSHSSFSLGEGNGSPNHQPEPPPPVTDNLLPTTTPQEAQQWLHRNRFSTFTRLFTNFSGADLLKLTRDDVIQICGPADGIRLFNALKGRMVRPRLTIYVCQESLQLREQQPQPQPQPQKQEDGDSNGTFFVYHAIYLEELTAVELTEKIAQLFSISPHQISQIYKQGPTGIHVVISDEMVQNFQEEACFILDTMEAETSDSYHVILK

SMILES	nanoparticle formation [1]	pIC50 [2]	induction of cell death in normal cells [3]	inhibition of DNA binding activity of CP2c [4]
CCCCCCCCCCCCCCCC(=O)N[C@@H](CCC(=O)NCCCC[C@H](NC(=O)CNC(=O)CNC(=O)[C@@H]1CCCN1C(=O)[C@H](CCCNC(=N)N)NC(=O)[C@H](CCC(N)=O)NC(=O)[C@@H]1CCCN1C(=O)[C@H](Cc1ccc(O)cc1)NC(=O)[C@H](CC(N)=O)NC(C)=O)C(=O)NCC(=O)NCC(=O)N[C@@H](CS)C(=O)N[C@@H](CCCNC(=N)N)C(=O)NCC(=O)N[C@@H](CC(=O)O)C(=O)N[C@@H](CCCCN)C(=O)NCC(=O)N1CCC[C@H]1C(=O)N[C@@H](CC(=O)O)C(=O)N[C@@H](CS)C(N)=O)C(=O)O [ACP52CGK] (Ac-NYPQRPGGK([γGlu-Palmitoyl])GGCRGDKGPDC-NH2)	significant reduction in nanoparticle formation	–	–	–
CC(=O)N[C@@H](CC(N)=O)C(=O)N[C@@H](Cc1ccc(O)cc1)C(=O)N1CCC[C@H]1C(=O)N[C@@H](CCC(N)=O)C(=O)N[C@@H](CCCNC(=N)N)C(=O)N1CCC[C@H]1C(=O)N[C@@H](CS)C(=O)N[C@@H](CCCNC(=N)N)C(=O)NCC(=O)N[C@@H](CC(=O)O)C(=O)N[C@@H](CCCCN)C(=O)NCC(=O)N1CCC[C@H]1C(=O)N[C@@H](CC(=O)O)C(=O)N[C@@H](CS)C(N)=O [ACP52C] (Ac-NYPQRPCRGDKGPDC-NH2)	majority of ACP52C exists in the form of nanoparticles in saline	~4.82	–	–
CCOc1ccccc1C1CC(=O)Nc2cc3c(cc21)OCO3 (centres unmarked) [FQI1, Factor Quinolinone Inhibitor 1, reference compound]	–	–	potential to induce cell death	proficient inhibition of DNA binding
